Reference: PMC10041525, “New Dual Inhibitors of Bacterial Topoisomerases with Broad-Spectrum Antibacterial Activity and In Vivo Efficacy against Vancomycin-Intermediate Staphylococcus aureus” (Journal of Medicinal Chemistry, 2023)
Values after ≈ are worked out from the molar mass of the structure shown. Values joined by “and” are separate entries in the source; they are usually repeats but may differ in a detail not shown here. Identical values can stand only once. Like-named read-outs stand apart in the source and are kept apart here.

Legend:
[1] = tested on: 100 A. baumannii strains (50 MDR, 50 non-MDR); assay: MIC broth microdilution at IHMA Europe, panel of 100 strains; assay type: cell-based; conditions: for MIC / MIC50 / MIC90: Acinetobacter baumannii
[2] = tested on: E. faecium (n = 13); assay: MIC broth microdilution at IHMA Europe; assay type: cell-based; conditions: for MIC: Enterococcus faecium, read-out: MIC
[3] = tested on: E. coli ATCC 35218; assay: IHMA QC MIC; assay type: cell-based; conditions: Escherichia coli, ATCC35218, read-out: MIC (QC, repeated tests)
Procedure: (§1) The panel of Hungarian clinical isolates and controls measured following the same method as detailed above, and albeit measurements were carried out in 384-well microtiter plates (Corning Inc.).

[4] = tested on: A. baumannii ATCC 17978; assay: IHMA QC MIC; assay type: cell-based; conditions: Acinetobacter baumannii, ATCC17978, read-out: MIC (QC, repeated tests)
Procedure: as §1

[5] = in vitro; assay type: in vitro ADME, mouse; conditions: male
Procedure: The PPB studies were performed by Selvita d.o.o. (Zagreb, Croatia) in mouse plasma (CD-1 male, pooled, commercially obtained from BioIVT) via equilibrium dialysis. Compounds were assayed at 5 μM (0.5% DMSO) in two replicates, and incubation time was 4 h at 37 °C. Samples were taken at 0 min and 4 h. Aliquots from both buffer and plasma compartment matrix were matched and mixed with 6 volumes of STOP solution (acetonitrile/methanol (2:1) + internal standard – diclofenac) and analyzed by LC–MS/MS. Assay controls were caffeine (low), verapamil (moderate binding), and nicardipine (very high binding), and protein contamination was checked.

Cc1[nH]c(C(=O)Nc2nc3c(N4CCOCC4)cc(C(=O)O)cc3s2)c(Cl)c1Cl [7a, 2-(3,4-Dichloro-5-methyl-1H-pyrrole-2-carboxamido)-4-morpholinobenzo[d]thiazole-6-carboxylic Acid]
MIC ([1]; A. baumannii IHMA 1769910, Israel 2018, Non-MDR): 16 µg/mL (≈ 35.1 µM)
MIC ([1]; A. baumannii IHMA 1795669, Tunisia 2018, Non-MDR): 1 µg/mL (≈ 2.2 µM)
MIC ([1]; A. baumannii IHMA 1814276, Lebanon 2018, MDR): 8 µg/mL (≈ 17.6 µM)
MIC ([1]; A. baumannii IHMA 1815198, Kuwait 2018, MDR): 8 µg/mL (≈ 17.6 µM)
MIC ([1]; A. baumannii IHMA 1821468, South Africa 2018, Non-MDR): 8 µg/mL (≈ 17.6 µM)
MIC ([1]; A. baumannii IHMA 1829500, Georgia 2018, Non-MDR): 8 µg/mL (≈ 17.6 µM)
MIC ([1]; A. baumannii IHMA 1830924, United Kingdom 2018, Non-MDR): 32 µg/mL (≈ 70.3 µM)
MIC ([1]; A. baumannii IHMA 1849819, Kuwait 2018, MDR): 16 µg/mL (≈ 35.1 µM)
MIC ([1]; A. baumannii IHMA 1849829, Kuwait 2018, Non-MDR): 8 µg/mL (≈ 17.6 µM)
MIC ([1]; A. baumannii IHMA 1857118, Slovenia 2018, Non-MDR): 16 µg/mL (≈ 35.1 µM)
MIC ([1]; A. baumannii IHMA 1863631, France 2018, Non-MDR): 8 µg/mL (≈ 17.6 µM)
MIC ([1]; A. baumannii IHMA 1870054, United States 2018, Non-MDR): 8 µg/mL (≈ 17.6 µM)
MIC ([1]; A. baumannii IHMA 1884428, Italy 2018, Non-MDR): 8 µg/mL (≈ 17.6 µM)
MIC ([1]; A. baumannii IHMA 1900538, Turkey 2018, Non-MDR): 8 µg/mL (≈ 17.6 µM)
MIC ([1]; A. baumannii IHMA 1957343, Portugal 2019, Non-MDR): 8 µg/mL (≈ 17.6 µM)
MIC ([1]; A. baumannii IHMA 1963732, Turkey 2019, MDR): 8 µg/mL (≈ 17.6 µM)
MIC ([1]; A. baumannii IHMA 1977077, Kuwait 2019, Non-MDR): 8 µg/mL (≈ 17.6 µM)
MIC ([1]; A. baumannii IHMA 1983151, Greece 2019, MDR): 8 µg/mL (≈ 17.6 µM)
MIC ([1]; A. baumannii IHMA 1984665, Lithuania 2019, MDR): 8 µg/mL (≈ 17.6 µM)
MIC ([1]; A. baumannii IHMA 1986678, Turkey 2019, Non-MDR): 8 µg/mL (≈ 17.6 µM)
MIC ([1]; A. baumannii IHMA 1986738, Turkey 2019, MDR): 8 µg/mL (≈ 17.6 µM)
MIC ([1]; A. baumannii IHMA 1995161, Czech Republic 2019, Non-MDR): 8 µg/mL (≈ 17.6 µM)
MIC ([1]; A. baumannii IHMA 1997936, Morocco 2019, Non-MDR): 8 µg/mL (≈ 17.6 µM)
MIC ([1]; A. baumannii IHMA 2003279, Turkey 2019, MDR): 8 µg/mL (≈ 17.6 µM)
MIC ([1]; A. baumannii IHMA 2014931, South Africa 2019, Non-MDR): 16 µg/mL (≈ 35.1 µM)
MIC ([1]; A. baumannii IHMA 2019315, Romania 2019, Non-MDR): 8 µg/mL (≈ 17.6 µM)
MIC ([1]; A. baumannii IHMA 2020360, Croatia 2019, MDR): 8 µg/mL (≈ 17.6 µM)
MIC ([1]; A. baumannii IHMA 2031524, Greece 2019, MDR): 8 µg/mL (≈ 17.6 µM)
MIC ([1]; A. baumannii IHMA 2034657, Tunisia 2019, Non-MDR): 16 µg/mL (≈ 35.1 µM)
MIC ([1]; A. baumannii IHMA 2035089, Serbia 2019, MDR): 8 µg/mL (≈ 17.6 µM)
MIC ([1]; A. baumannii IHMA 2035134, Serbia 2019, Non-MDR): 8 µg/mL (≈ 17.6 µM)
MIC ([1]; A. baumannii IHMA 2038976, Hungary 2019, MDR): 8 µg/mL (≈ 17.6 µM)
MIC ([1]; A. baumannii IHMA 2058329, Slovenia 2019, Non-MDR): 8 µg/mL (≈ 17.6 µM)
MIC ([1]; A. baumannii IHMA 2099294, United Kingdom 2019, Non-MDR): 8 µg/mL (≈ 17.6 µM)
MIC ([1]; A. baumannii IHMA 2129256, Qatar 2019, Non-MDR): 8 µg/mL (≈ 17.6 µM)
MIC ([1]; A. baumannii IHMA 2154584, Israel 2020, MDR): 8 µg/mL (≈ 17.6 µM)
MIC ([1]; A. baumannii IHMA 2156634, Turkey 2020, MDR): 8 µg/mL (≈ 17.6 µM)
MIC ([1]; A. baumannii IHMA 2156709, Turkey 2020, MDR): 8 µg/mL (≈ 17.6 µM)
MIC ([1]; A. baumannii IHMA 2157614, Australia 2020, Non-MDR): 16 µg/mL (≈ 35.1 µM)
MIC ([1]; A. baumannii IHMA 2177232, Lithuania 2020, MDR): 8 µg/mL (≈ 17.6 µM)
MIC ([1]; A. baumannii IHMA 2177489, Lithuania 2020, MDR): 8 µg/mL (≈ 17.6 µM)
MIC ([1]; A. baumannii IHMA 2178574, Ukraine 2020, Non-MDR): 16 µg/mL (≈ 35.1 µM)
MIC ([1]; A. baumannii IHMA 2180134, Malaysia 2020, Non-MDR): 8 µg/mL (≈ 17.6 µM)
MIC ([1]; A. baumannii IHMA 2181370, Morocco 2020, MDR): 8 µg/mL (≈ 17.6 µM)
MIC ([1]; A. baumannii IHMA 2183729, Argentina 2020, MDR): 16 µg/mL (≈ 35.1 µM)
MIC ([1]; A. baumannii IHMA 2183849, Argentina 2020, Non-MDR): 8 µg/mL (≈ 17.6 µM)
MIC ([1]; A. baumannii IHMA 2193375, Venezuela 2020, MDR): 8 µg/mL (≈ 17.6 µM)
MIC ([1]; A. baumannii IHMA 2193607, Venezuela 2020, MDR): 8 µg/mL (≈ 17.6 µM)
MIC ([1]; A. baumannii IHMA 2195460, Italy 2020, MDR): 8 µg/mL (≈ 17.6 µM)
MIC ([1]; A. baumannii IHMA 2196914, South Africa 2020, MDR): 8 µg/mL (≈ 17.6 µM)
MIC ([1]; A. baumannii IHMA 2196959, South Africa 2020, MDR): 8 µg/mL (≈ 17.6 µM)
MIC ([1]; A. baumannii IHMA 2203763, Spain 2020, MDR): 8 µg/mL (≈ 17.6 µM)
MIC ([1]; A. baumannii IHMA 2212575, Hungary 2020, Non-MDR): 16 µg/mL (≈ 35.1 µM)
MIC ([1]; A. baumannii IHMA 2215307, Hong Kong 2020, Non-MDR): 8 µg/mL (≈ 17.6 µM)
MIC ([1]; A. baumannii IHMA 2216586, Taiwan 2020, MDR): 8 µg/mL (≈ 17.6 µM)
MIC ([1]; A. baumannii IHMA 2224017, Panama 2020, MDR): 16 µg/mL (≈ 35.1 µM)
MIC ([1]; A. baumannii IHMA 2224303, Panama 2020, Non-MDR): 32 µg/mL (≈ 70.3 µM)
MIC ([1]; A. baumannii IHMA 2233099, Guatemala 2020, MDR): 16 µg/mL (≈ 35.1 µM)
MIC ([1]; A. baumannii IHMA 2233430, Kazakhstan 2020, MDR): 8 µg/mL (≈ 17.6 µM)
MIC ([1]; A. baumannii IHMA 2233548, Kazakhstan 2020, Non-MDR): 8 µg/mL (≈ 17.6 µM)
MIC ([1]; A. baumannii IHMA 2238964, Thailand 2020, MDR): 8 µg/mL (≈ 17.6 µM)
MIC ([1]; A. baumannii IHMA 2239052, Thailand 2020, Non-MDR): 8 µg/mL (≈ 17.6 µM)
MIC ([1]; A. baumannii IHMA 2261047, Belgium 2020, MDR): 16 µg/mL (≈ 35.1 µM)
MIC ([1]; A. baumannii IHMA 2261633, Canada 2020, Non-MDR): 16 µg/mL (≈ 35.1 µM)
MIC ([1]; A. baumannii IHMA 2274234, South Africa 2020, MDR): 8 µg/mL (≈ 17.6 µM)
MIC ([1]; A. baumannii IHMA 2274364, South Africa 2020, MDR): 8 µg/mL (≈ 17.6 µM)
MIC ([1]; A. baumannii IHMA 2275237, Chile 2020, Non-MDR): 8 µg/mL (≈ 17.6 µM)
MIC ([1]; A. baumannii IHMA 2316205, United States 2020, MDR): 8 µg/mL (≈ 17.6 µM)
MIC50 ([1]; MDR n = 50): 8 µg/mL (≈ 17.6 µM)
MIC90 ([1]; MDR n = 50): 8 µg/mL (≈ 17.6 µM)
MIC50 ([1]; all isolates n = 100): 8 µg/mL (≈ 17.6 µM)
MIC90 ([1]; all isolates n = 100): 16 µg/mL (≈ 35.1 µM)
MIC50 ([1]; non-MDR n = 50): 8 µg/mL (≈ 17.6 µM)
MIC90 ([1]; non-MDR n = 50): 16 µg/mL (≈ 35.1 µM)
MIC ([1]; read-out: MAX (maximum MIC), non-MDR n = 50): 32 µg/mL (≈ 70.3 µM)
MIC ([1]; read-out: MAX (maximum MIC; all strains inhibited), MDR n = 50): 16 µg/mL (≈ 35.1 µM)
MIC ([1]; read-out: MAX (maximum MIC; all strains inhibited), all isolates n = 100): 32 µg/mL (≈ 70.3 µM)
MIC ([1]; read-out: MIN (minimum MIC), all isolates n = 100): 1 µg/mL (≈ 2.2 µM)
MIC ([1]; read-out: MIN (minimum MIC), non-MDR n = 50): 1 µg/mL (≈ 2.2 µM)
MAX (maximum MIC; all strains inhibited) ([1]; MDR n = 50): 16 µg/mL
Cumulative % at MIC [2]: 61.5% and 100.0%
No. of isolates at MIC [2]: 8 and 5
MIC ([2]; E. faecium IHMA N° 1764866): 0.06 µg/mL (≈ 0.132 µM)
MIC ([2]; E. faecium IHMA N° 1765436): 0.06 µg/mL (≈ 0.132 µM)
MIC ([2]; E. faecium IHMA N° 1765746): 0.06 µg/mL (≈ 0.132 µM)
MIC ([2]; E. faecium IHMA N° 1893573): 0.06 µg/mL (≈ 0.132 µM)
MIC ([2]; E. faecium IHMA N° 1893846): 0.12 µg/mL (≈ 0.264 µM)
MIC ([2]; E. faecium IHMA N° 1893942): 0.12 µg/mL (≈ 0.264 µM)
MIC ([2]; E. faecium IHMA N° 1894055): 0.12 µg/mL (≈ 0.264 µM)
MIC ([2]; E. faecium IHMA N° 1897027): 0.12 µg/mL (≈ 0.264 µM)
MIC ([2]; E. faecium IHMA N° 1897101): 0.06 µg/mL (≈ 0.132 µM)
MIC ([2]; E. faecium IHMA N° 1904592): 0.06 µg/mL (≈ 0.132 µM)
MIC ([2]; E. faecium IHMA N° 2075051): 0.12 µg/mL (≈ 0.264 µM)
MIC ([2]; E. faecium IHMA N° 2077718): 0.06 µg/mL (≈ 0.132 µM)
MIC ([2]; E. faecium IHMA N° 2083787): 0.06 µg/mL (≈ 0.132 µM)
MIC, all isolates ([2]; n = 13): ≤ 0.12 µg/mL
MIC [3]: 4 µg/mL (≈ 8.78 µM)
MIC [4]: 8 µg/mL (≈ 17.6 µM)
recovery at 4 h, 5 μM ([5]; CD-1, mouse, plasma protein binding assay): 81.5%
fraction unbound at 4 h, 5 μM ([5]; CD-1, mouse plasma, 5 µM, 4 h, read-out: fu, fraction unbound): 0.018
